For the assay, the target named is T1, ΔF508-CFTR (Homo sapiens, UniProt P13569, DEL508-508).
T1 construct: expressed in transfected cells
The experiment in a line: Membrane potential optical assay for ΔF508-CFTR correction (single-addition HTS format). Type of assay: cell-based. The conditions noted are these: NIH 3T3 cells expressing ΔF508-CFTR, 16-24 hrs with test compound, 10 µM forskolin and genistein (20 µM); for Emax: NIH3T3, read-out: Binned Max Efficacy; for EC50: read-out: Binned EC50. From the text: Membrane potential optical methods for assaying ΔF508-CFTR modulation properties of compounds.
The assay utilizes fluorescent voltage sensing dyes to measure changes in membrane potential using a fluorescent plate reader (e.g., FLIPR III, Molecular Devices, Inc.) as a readout for increase in functional ΔF508-CFTR in NIH 3T3 cells. The driving force for the response is the creation of a chloride ion gradient in conjunction with channel activation by a single liquid addition step after the cells have previously been treated with compounds and subsequently loaded with a voltage sensing dye.
To identify small molecules that correct the trafficking defect associated with ΔF508-CFTR; a single-addition HTS assay format was developed. Assay Plates containing cells are incubated for ∼2-4 hours in tissue culture incubator at 37°C, 5%CO2, 90% humidity. Cells are then ready for compound exposure after adhering to the bottom of the assay plates.
The cells were incubated in serum-free medium for 16-24 hrs in tissue culture incubator at 37°C, 5%CO2, 90% humidity in the presence or absence (negative control) of test compound. The cells were subsequently rinsed 3X with Krebs Ringers solution and loaded with a voltage sensing redistribution dye. To activate ΔF508-CFTR, 10 µM forskolin and the CFTR potentiator, genistein (20 µM), were added along with Cl^--free medium to each well. The addition of Cl^--free medium promoted Cl^- efflux in response to ΔF508-CFTR activation and the resulting membrane depolarization was optically monitored using voltage sensor dyes.
Bath Solution #1: (in mM) NaCl 160, KCl 4.5, CaCl2 2, MgCl2 1, HEPES 10, pH 7.4 with NaOH.
Chloride-free bath solution: Chloride salts in Bath Solution #1 are substituted with gluconate salts.
NIH3T3 mouse fibroblasts stably expressing ΔF508-CFTR are used for optical measurements of membrane potential. The cells are maintained at 37 °C in 5% CO2 and 90 % humidity in Dulbecco's modified Eagle's medium supplemented with 2 mM glutamine, 10 % fetal bovine serum, 1 X NEAA, β-ME, 1 X pen/strep, and 25 mM HEPES in 175 cm^2 culture flasks. For all optical assays, the cells were seeded at […] in 384-well matrigel-coated plates and cultured for 2 hrs at 37 °C before culturing at 27 °C for 24 hrs. for the potentiator assay. For the correction assays, the cells are cultured at 27 °C or 37 °C with and without compounds for 16 - 24 hours.

T1 sequence (P13569 with tags, fused parts or gaps DEL508-508): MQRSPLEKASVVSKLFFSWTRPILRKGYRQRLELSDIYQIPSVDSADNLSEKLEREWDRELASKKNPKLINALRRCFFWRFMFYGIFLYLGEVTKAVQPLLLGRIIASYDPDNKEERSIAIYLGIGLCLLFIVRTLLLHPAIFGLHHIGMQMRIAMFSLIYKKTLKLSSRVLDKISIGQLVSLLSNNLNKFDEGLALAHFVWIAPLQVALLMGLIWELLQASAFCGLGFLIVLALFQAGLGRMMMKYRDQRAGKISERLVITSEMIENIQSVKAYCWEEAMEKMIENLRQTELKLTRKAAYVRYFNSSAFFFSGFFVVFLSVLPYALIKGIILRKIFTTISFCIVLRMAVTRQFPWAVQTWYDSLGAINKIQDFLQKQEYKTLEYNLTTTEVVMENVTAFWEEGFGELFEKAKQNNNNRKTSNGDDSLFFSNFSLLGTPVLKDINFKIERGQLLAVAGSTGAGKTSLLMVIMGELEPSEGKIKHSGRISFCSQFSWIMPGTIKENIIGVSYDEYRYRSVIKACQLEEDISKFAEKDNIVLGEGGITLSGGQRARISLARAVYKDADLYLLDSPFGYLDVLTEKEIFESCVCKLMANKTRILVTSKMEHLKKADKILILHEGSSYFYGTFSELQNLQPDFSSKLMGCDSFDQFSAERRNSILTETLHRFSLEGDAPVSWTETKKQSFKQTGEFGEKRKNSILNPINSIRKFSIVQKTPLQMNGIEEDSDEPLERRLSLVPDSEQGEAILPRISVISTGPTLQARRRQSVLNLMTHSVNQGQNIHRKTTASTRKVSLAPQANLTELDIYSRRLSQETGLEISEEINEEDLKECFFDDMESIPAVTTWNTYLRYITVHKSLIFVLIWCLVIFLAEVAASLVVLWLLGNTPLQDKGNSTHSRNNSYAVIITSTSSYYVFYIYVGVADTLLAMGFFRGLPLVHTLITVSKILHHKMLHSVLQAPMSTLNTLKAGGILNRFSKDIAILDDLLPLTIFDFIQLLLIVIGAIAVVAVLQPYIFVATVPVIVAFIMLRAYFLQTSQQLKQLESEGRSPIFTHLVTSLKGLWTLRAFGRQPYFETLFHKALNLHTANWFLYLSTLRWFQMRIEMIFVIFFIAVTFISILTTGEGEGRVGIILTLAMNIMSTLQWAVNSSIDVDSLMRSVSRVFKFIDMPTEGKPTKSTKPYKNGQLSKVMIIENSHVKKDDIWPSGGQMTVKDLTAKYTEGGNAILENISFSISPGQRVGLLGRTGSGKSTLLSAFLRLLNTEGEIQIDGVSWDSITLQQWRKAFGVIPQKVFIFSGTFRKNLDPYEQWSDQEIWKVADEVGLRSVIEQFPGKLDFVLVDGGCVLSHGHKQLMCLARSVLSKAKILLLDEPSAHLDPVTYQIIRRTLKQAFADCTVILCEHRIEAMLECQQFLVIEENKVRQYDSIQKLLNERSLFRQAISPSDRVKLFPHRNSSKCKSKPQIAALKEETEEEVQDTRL

In the case of `CC(C)(CCOC[C@@H](O)CO)c1cc2cc(NC(=O)C3(c4ccc5c(c4)OC(F)(F)O5)CC3)c(F)cc2[nH]1` [Compound 309, (S)-1-(2,2-difluorobenzo[d][1,3]dioxol-5-yl)-N-(2-(4-(2,3-dihydroxypropoxy)-2-methylbutan-2-yl)-6-fluoro-1H-indol-5-yl)cyclopropanecarboxamide], the Emax is more than 100% and the EC50 was less than 2 µM.
The matching figures for `CC(C)(CCO)c1cc2cc(NC(=O)C3(c4ccc5c(c4)OC(F)(F)O5)CC3)c(F)cc2n1C[C@@H](O)CO` [Compound 311, (R)-1-(2,2-difluorobenzo[d][1,3]dioxol-5-yl)-N-(1-(2,3-dihydroxypropyl)-6-fluoro-2-(4-hydroxy-2-methylbutan-2-yl)-1H-indol-5-yl)cyclopropanecarboxamide]: more than 100% and less than 2 µM.
The matching figures for `CC(C)(C)c1cc2c(C#N)c(NC(=O)C3(c4ccc5c(c4)OC(F)(F)O5)CC3)ccc2n1CCO` [Compound 315, N-(2-tert-butyl-4-cyano-1-(2-hydroxyethyl)-1H-indol-5-yl)-1-(2,2-difluorobenzo[d][1,3]dioxol-5-yl)cyclopropanecarboxamide]: more than 100% and less than 2 µM.
Turning to `CC(C)(C)c1cc2cc(NC(=O)C3(c4ccc5c(c4)OCO5)CC3)c(F)cc2n1CC(O)CO` (stereo not drawn) [Compound 318], the Emax was more than 100% and the 50% effective concentration (EC50) was less than 2 µM.
Take “2-(2-tert-butyl-5-(1-(2,2-difluorobenzo[d][1,3]dioxol-5-yl)cyclopropanecarboxamido)-6-fluoro-1H-indol-1-yl)-N,N,N-trimethylethanaminium chloride [Compound 308]”: the “Binned Max Efficacy” value is “+++ ("+++" means > 100%)” and the EC50 fell in the range of 2 to 5 µM.
`CC(C)(CCOC[C@@H](O)CO)c1cc2cc(NC(=O)C3(c4ccc5c(c4)OC(F)(F)O5)CC3)c(F)cc2n1C[C@@H](O)CO` [Compound 310, 1-(2,2-difluorobenzo[d][1,3]dioxol-5-yl)-N-(2-(4-((S)-2,3-dihydroxypropoxy)-2-methylbutan-2-yl)-1-((R)-2,3-dihydroxypropyl)-6-fluoro-1H-indol-5-yl)cyclopropanecarboxamide]: the Emax is more than 100% and the EC50 was less than 2 µM.

The record behind these values is patent EP2365972B1, “MODULATORS OF ATP-BINDING CASSETTE TRANSPORTERS” (Vertex Pharmaceuticals Incorporated, priority 2008, dated 2010).
